Measurements published in patent US20140163067A1, “Methods of Treatment of Limited Cognitive Impairment” (ENVIVO PHARMACEUTICALS, INC., priority 2011, published 2014).

Test system: subjects suffering from LCI
Assay: Sensory electrophysiological responses (P50 gating, MMN, P300, N100) in LCI subjects
Assay type: in vivo, human
Conditions: compared with placebo, effects expected at a daily dose as low as 0.3 mg, dosed daily for 20 days
Method: These effects are expected at a daily dose as low as 0.3 mg of (R)-7-chloro-N-(quinuclidin-3-yl)benzo[b]thiophene-2-carboxamide hydrochloride.
Impairment of the ability of central nervous system to inhibit irrelevant sensory information has long been used as a model for understanding the deficits of attention seen in subjects. Two approaches to the measurement of this ability have commonly been employed (see (Heinrichs, 2004; Potter et al., 2006; Turetsky et al., 2007; Umbricht and Krljes, 2005) for reviews and meta-analyses): (1) the sensory gating paradigm in which the presentation of one stimulus normally suppresses the response elicited by a stimulus which rapidly follows it; and (2) the oddball or orienting paradigm in which a rare or unexpected event elicits a diminished response in subjects because attentional resources are inappropriately focused on less salient aspects of the environment.
Two responses are commonly used assess brain activity: (1) the auditory P50 response elicited by the second member of a pair of clicks; and (2) the mismatch negativity (MMN) or N2 response evoked by a rarely occurring pure tone of no instructed relevance to the subject. Abnormalities in both P50 gating and the MMN have been reported in schizophrenic subjects. […]

In the case of `Cl.O=C(N[C@H]1CN2CCC1CC2)c1cc2cccc(Cl)c2s1` [(R)-7-chloro-N-(quinuclidin-3-yl)benzo[b]thiophene-2-carboxamide hydrochloride], the “sensory electrophysiological responses which correlate with improved cognitive and functional performance” value was “can improve sensory electrophysiological responses”.
